The structures appear in SMILES notation.

The text below walks through data of patent publication US6391309B1, “Method of preparing and using isoflavones for the treatment of female symptoms” (Archer Daniesl Midland Company, priority 1996, dated 2002).

Series [1] in a line: Solubility of isoflavones in distilled water at 37° C., HPLC after filtration. In kind it is physicochemical. To be noted: 0.02% in distilled water, 17 hours, 0.2 micron filter. The protocol: Separate solutions (0.02% in distilled water) were made for genistein, genistin, daidzein, daidzin and isoflavone concentrate in volumetric flasks. Samples were then placed in a 37° C. water bath for 17 hours, followed by rapid filtration through a 0.2 micron syringe-type filter to remove particulates. Filtered samples were then analyzed for isoflavone concentration by HPLC.

Series [2] concerns LNCaP cells. The series can be described thus: In vitro secretion of PSA by LNCaP cells into media. In kind it is cell-based. The method, then: PSA concentrations were reduced 68% and 74% by 25 and 50 μM of genistein treatment respectively, and 31% and 42% by 25 and 50 μM of soy phytochemical concentrate treatment respectively.

For the compound `O=c1c(-c2ccc(O)cc2)coc2cc(O[C@@H]3O[C@H](CO)[C@@H](O)[C@H](O)[C@H]3O)ccc12` [daidzin], the “Daidzin concentration in solution (solubility)” value in series [1] amounted to 48.51 ppm.

Take `O=c1c(-c2ccc(O)cc2)coc2cc(O)cc(O)c12` [genistein]: the values for the PSA concentration reduced in series [2] (25 μM) and in series [2] (50 μM) were 68% and 74%, respectively. The “Genistein concentration in solution (solubility)” value in series [1] came to 7.42 ppm.
